Measurements as given in patent US9505721B2, “Aromatic imide compound and method for producing same” (AZ ELECTRONIC MATERIALS (LUXEMBOURG) S.A.R.L., priority 2012, dated 2016).

How the values were obtained:
[1] = Ultraviolet and visible absorption spectrum (absorbance at i-, h- and g-line); type: physicochemical; conditions: measurement solvent dichloromethane
Method: [3] Ultraviolet and visible absorption spectrum Types of machines: Varian Cary4000 manufactured by Agilent Technologies, Inc.
(§1) Measurement solvent: Dichloromethane
Absorption spectrums of compounds obtained in Examples 1 to 5 were measured. Furthermore, N-trifluoromethanesulfonyloxy-1,8-naphthalimide was used as a comparative example.

[2] = Evaluation test of acid generating ability (UV irradiation, BCG pH probe); type: physicochemical; conditions: solution in dichloromethane with BCG, before irradiation
Method: It was measured and evaluated by devices and a method (Evaluation test of acid generating ability) described below whether compounds obtained in Examples above acted as an acid generator under photoirradiation. The actual evaluation was conducted by use of Compound 1H. Devices used in evaluation are as follows.
as §1
(1) […] Compound 1H solution in dichloromethane was prepared and a few drops of 50% bromocresolgreen (BCG) solution in ethanol were added in this solution as pH probe.
(2) The absorption spectrum of the solution was measured and it was checked that there are maximum absorption spectrums of Compound 1H in 300-400 nm and BOG in 630 nm. The color of this solution was dark blue.
(3) The absorption spectrum of the solution was measured every 2 minutes while irradiating the solution described (2) above by UV lamp. At this time, the progress of attenuation concerning absorption maximum of BCG spectrum and the discoloration situation of dark blue color in the solution due to the pH decline of the system by generation of acids were observed by eyes.

SMILES	absorbance 365 nm (i-line) [1]	absorbance 405 nm (h-line) [1]	absorbance 436 nm (g-line) [1]	maximum absorption spectrum [2]
O=C1c2cccc3cccc(c23)C(=O)N1OS(=O)(=O)C(F)(F)F [Comparative example, N-trifluoromethanesulfonyloxy-1,8-naphthalimide, reference compound]	0.02925	0.005575	0.004642	–
O=C1c2cccc3c(C#Cc4ccccc4)ccc(c23)C(=O)N1OS(=O)(=O)C(F)(F)F [Compound 1H, N-trifluoromethanesulfonyloxy-4-phenylethynyl-1,8-naphthalimide]	0.4162	0.5112	0.01499	300-400 nm
